Results taken from PMC4521635 (Clinical cancer research : an official journal of the …, 2011).
“Also recorded” adds a separate entry of the source. Where two headings read alike, the source gives them in different places.

Legend:
clinical = type: in vivo, human
[1] = 4-day continuous infusion with cyclophosphamide and carboplatin; cited from earlier work
[2] = cited from earlier work
[3] = median, dose level 7, daily dose 21.3 mg/m^2 for 3 days, day 8, phase I patients
[4] = with paclitaxel and carboplatin
[5] = Expanded MTD cohort, TIME + HCT
[6] = TIME regimen with autologous HCT
[7] = dose level 1, topotecan 10 mg/m^2, TIME + HCT
[8] = dose level 2, topotecan 15 mg/m^2, TIME + HCT
[9] = dose level 3, topotecan 20 mg/m^2, TIME + HCT
[10] = dose level 4, topotecan 27 mg/m^2, TIME + HCT
[11] = dose level 5, topotecan 36 mg/m^2, TIME + HCT
[12] = dose level 6, topotecan 48 mg/m^2, TIME + HCT
[13] = dose level 7, topotecan 64 mg/m^2, TIME + HCT
[14] = dose level 8, topotecan 85 mg/m^2, TIME + HCT

CC[C@@]1(O)C(=O)OCc2c1cc1n(c2=O)Cc2cc3c(CN(C)C)c(O)ccc3nc2-1 [topotecan]
AUC, Lactone (clinical; human, in vivo, 3.3 mg/m2): 0.26 µM·h
AUC, Total (clinical; human, in vivo, 3.3 mg/m2): 0.56 µM·h
Cl, Lactone (clinical; human, in vivo, 3.3 mg/m2): 27.95 L/h/m^2
Cl, Total (clinical; human, in vivo, 3.3 mg/m2): 12.97 L/h/m^2
Cmax (clinical; human, in vivo, 3.3 mg/m2): 180 nM
Cmax, Total (clinical; human, in vivo, 3.3 mg/m2): 180 nM
T1/2, Lactone (clinical; human, in vivo, 3.3 mg/m2): 2.6 h
T1/2, Total (clinical; human, in vivo, 3.3 mg/m2): 2.7 h
Vdss, Lactone (clinical; human, in vivo, 3.3 mg/m2): 56.6 L/m^2
Vdss, Total (clinical; human, in vivo, 3.3 mg/m2): 49.2 L/m^2
AUC (clinical; human, in vivo, 5 mg/m2): 0.27 µM·h
Cl, Lactone (clinical; human, in vivo, 5 mg/m2): 41.19 L/h/m^2
Cl, Total (clinical; human, in vivo, 5 mg/m2): 15.44 L/h/m^2
Cmax (clinical; human, in vivo, 5 mg/m2): 200 nM
T1/2, Total (clinical; human, in vivo, 5 mg/m2): 3.0 h
half-life (clinical; human, in vivo, 5 mg/m2): 2.7 h
AUC (clinical; human, in vivo, 6.8 mg/m2): 0.38 µM·h
AUC, Total (clinical; human, in vivo, 6.8 mg/m2): 0.86 µM·h
Cl, Lactone (clinical; human, in vivo, 6.8 mg/m2): 39.59 L/h/m^2
Cl, Total (clinical; human, in vivo, 6.8 mg/m2): 17.14 L/h/m^2
Cmax (clinical; human, in vivo, 6.8 mg/m2): 230 nM
Cmax, Total (clinical; human, in vivo, 6.8 mg/m2): 330 nM
T1/2, Total (clinical; human, in vivo, 6.8 mg/m2): 2.6 h
Vdss, Lactone (clinical; human, in vivo, 6.8 mg/m2): 113 L/m^2
Vdss, Total (clinical; human, in vivo, 6.8 mg/m2): 57.5 L/m^2
half-life (clinical; human, in vivo, 6.8 mg/m2): 3.4 h
AUC, Lactone (clinical; human, in vivo, 8.9 mg/m2): 0.70 µM·h
AUC, Total (clinical; human, in vivo, 8.9 mg/m2): 1.63 µM·h
Cl, Lactone (clinical; human, in vivo, 8.9 mg/m2): 28.1 L/h/m^2
Cl, Total (clinical; human, in vivo, 8.9 mg/m2): 12.05 L/h/m^2
Cmax (clinical; human, in vivo, 8.9 mg/m2): 480 nM
Cmax, Total (clinical; human, in vivo, 8.9 mg/m2): 520 nM
T1/2, Lactone (clinical; human, in vivo, 8.9 mg/m2): 3.1 h
Vdss, Lactone (clinical; human, in vivo, 8.9 mg/m2): 91.6 L/m^2
Vdss, Total (clinical; human, in vivo, 8.9 mg/m2): 53.7 L/m^2
AUC, Lactone (clinical; human, in vivo, 12 mg/m2): 0.88 µM·h
AUC, Total (clinical; human, in vivo, 12 mg/m2): 1.86 µM·h
Cl, Lactone (clinical; human, in vivo, 12 mg/m2): 30.11 L/h/m^2
Cl, Total (clinical; human, in vivo, 12 mg/m2): 16.43 L/h/m^2
Cmax (clinical; human, in vivo, 12 mg/m2): 610 nM
Cmax, Total (clinical; human, in vivo, 12 mg/m2): 650 nM
T1/2, Lactone (clinical; human, in vivo, 12 mg/m2): 3.2 h
T1/2, Total (clinical; human, in vivo, 12 mg/m2): 2.9 h
Vdss, Lactone (clinical; human, in vivo, 12 mg/m2): 94.4 L/m^2
Vdss, Total (clinical; human, in vivo, 12 mg/m2): 53.3 L/m^2
AUC, Lactone (clinical; human, in vivo, 15.7 mg/m2): 1.48 µM·h
AUC, Total (clinical; human, in vivo, 15.7 mg/m2): 2.77 µM·h
Cl, Lactone (clinical; human, in vivo, 15.7 mg/m2): 23.53 L/h/m^2
Cl, Total (clinical; human, in vivo, 15.7 mg/m2): 12.62 L/h/m^2
Cmax (clinical; human, in vivo, 15.7 mg/m2): 800 nM
Cmax, Total (clinical; human, in vivo, 15.7 mg/m2): 870 nM
T1/2, Lactone (clinical; human, in vivo, 15.7 mg/m2): 3.3 h
T1/2, Total (clinical; human, in vivo, 15.7 mg/m2): 3.1 h
Vdss, Lactone (clinical; human, in vivo, 15.7 mg/m2): 76.6 L/m^2
Vdss, Total (clinical; human, in vivo, 15.7 mg/m2): 48.1 L/m^2
T1/2, Lactone (clinical; human, in vivo, 21.3 mg/m2): 2.7 h
T1/2, Total (clinical; human, in vivo, 21.3 mg/m2): 2.6 h
AUC, Lactone (clinical; human, in vivo, 28.4 mg/m2): 2.40 µM·h
AUC, Total (clinical; human, in vivo, 28.4 mg/m2): 5.73 µM·h
Cl, Lactone (clinical; human, in vivo, 28.4 mg/m2): 25.77 L/h/m^2
Cl, Total (clinical; human, in vivo, 28.4 mg/m2): 10.78 L/h/m^2
Cmax (clinical; human, in vivo, 28.4 mg/m2): 1670 nM
Cmax, Total (clinical; human, in vivo, 28.4 mg/m2): 2120 nM
T1/2, Total (clinical; human, in vivo, 28.4 mg/m2): 2.4 h
Vdss, Lactone (clinical; human, in vivo, 28.4 mg/m2): 81.5 L/m^2
Vdss, Total (clinical; human, in vivo, 28.4 mg/m2): 41.1 L/m^2
Cl, Lactone (clinical; [3]): 29.10 L/h/m^2
Cl, Total (clinical; [3]): 13.43 L/h/m^2
Vdss, Lactone (clinical; [3]): 95.8 L/m^2
Vdss, Total (clinical; [3]): 63.9 L/m^2
median topotecan clearance [1]: 184 mL/min/m^2
dose-limiting toxicity ([2]; seen at 6 mg/m^2/d, with cyclophosphamide and carboplatin): severe stomatitis requiring parenteral nutrition and narcotic administration
MTD ([2]; single agent, 72-hour continuous infusion, largest dose 11 mg/m^2): not reached
dose-limiting toxicity ([2]; single-agent topotecan with hematopoietic cell support): diarrhea
dose-limiting toxicities [2, 4]: hemorrhagic stomatitis and prolonged hematopoietic recovery
topotecan dose at which 4 cycles could be given [2, 4]: 10 mg/m^2
MTD of topotecan (daily dose) (3 days, in combination with ifosfamide, mesna, etoposide, followed by autologous HCT): 21.3 mg/m^2/d
Nonrelapse deaths, cause [5]: Arrhythmia (1) and bacterial sepsis (1)
Nonrelapse deaths, number of patients [5]: 2 (13%)
dose-limiting toxicity [6]: Mucositis; also recorded: gastrointestinal toxicity
recommended phase II dose [6]: 64 mg/m^2
Cortical function, number of patients with grade 3 or 4 [7]: 0
Enteritis, number of patients with grade 3 or 4 [7]: 0
Hematuria, number of patients with grade 3 or 4 [7]: 0
Mucositis (grade 4), number of patients [7]: 1 (25%)
Nonrelapse deaths, number of patients [7]: 0
Number of days with grade 4 mucositis, median (range) [7]: 0 (0-1) days
Peripheral nerve function, number of patients with grade 3 or 4 [7]: 0
Pulmonary clinical status, number of patients with grade 3 or 4 [7]: 1 (25%)
Reduction in ejection fraction, number of patients with grade 3 or 4 [7]: 0
Cortical function, number of patients with grade 3 or 4 [8]: 1 (17%)
Enteritis, number of patients with grade 3 or 4 [8]: 1 (17%)
Hematuria, number of patients with grade 3 or 4 [8]: 1 (17%)
Mucositis (grade 4), number of patients [8]: 2 (33%)
Nonrelapse deaths, number of patients [8]: 0
Number of days with grade 4 mucositis, median (range) [8]: 0 (0-10) days
Peripheral nerve function, number of patients with grade 3 or 4 [8]: 1 (17%)
Pulmonary clinical status, number of patients with grade 3 or 4 [8]: 1 (17%)
Reduction in ejection fraction, number of patients with grade 3 or 4 [8]: 0
Cortical function, number of patients with grade 3 or 4 [9]: 0
Enteritis, number of patients with grade 3 or 4 [9]: 3 (75%)
Hematuria, number of patients with grade 3 or 4 [9]: 1 (25%)
Mucositis (grade 4), number of patients [9]: 2 (50%)
Nonrelapse deaths, number of patients [9]: 0
Number of days with grade 4 mucositis, median (range) [9]: 2.5 (0-6) days
Peripheral nerve function, number of patients with grade 3 or 4 [9]: 0
Pulmonary clinical status, number of patients with grade 3 or 4 [9]: 0
Reduction in ejection fraction, number of patients with grade 3 or 4 [9]: 0
Cortical function, number of patients with grade 3 or 4 [10]: 1 (20%)
Enteritis, number of patients with grade 3 or 4 [10]: 3 (60%)
Hematuria, number of patients with grade 3 or 4 [10]: 0
Mucositis (grade 4), number of patients [10]: 4 (80%)
Nonrelapse deaths, number of patients [10]: 0
Number of days with grade 4 mucositis, median (range) [10]: 2 (0-7) days
Peripheral nerve function, number of patients with grade 3 or 4 [10]: 0
Pulmonary clinical status, number of patients with grade 3 or 4 [10]: 1 (20%)
Reduction in ejection fraction, number of patients with grade 3 or 4 [10]: 1 (20%)
Cortical function, number of patients with grade 3 or 4 [11]: 1 (11 %)
Enteritis, number of patients with grade 3 or 4 [11]: 4 (44%)
Hematuria, number of patients with grade 3 or 4 [11]: 0
Mucositis (grade 4), number of patients [11]: 5 (56%)
Nonrelapse deaths, number of patients [11]: 0
Number of days with grade 4 mucositis, median (range) [11]: 1 (0-20) days
Peripheral nerve function, number of patients with grade 3 or 4 [11]: 0
Pulmonary clinical status, number of patients with grade 3 or 4 [11]: 0
Reduction in ejection fraction, number of patients with grade 3 or 4 [11]: 0
Cortical function, number of patients with grade 3 or 4 [12]: 0
Enteritis, number of patients with grade 3 or 4 [12]: 2 (40%)
Hematuria, number of patients with grade 3 or 4 [12]: 0
Mucositis (grade 4), number of patients [12]: 5 (100%)
Nonrelapse deaths, number of patients [12]: 0
Number of days with grade 4 mucositis, median (range) [12]: 5 (1-9) days
Peripheral nerve function, number of patients with grade 3 or 4 [12]: 0
Pulmonary clinical status, number of patients with grade 3 or 4 [12]: 0
Reduction in ejection fraction, number of patients with grade 3 or 4 [12]: 0
Cortical function, number of patients with grade 3 or 4 [13]: 0
Enteritis, number of patients with grade 3 or 4 [13]: 4 (57%)
Hematuria, number of patients with grade 3 or 4 [13]: 1 (14%)
Mucositis (grade 4), number of patients [13]: 7 (100%)
Nonrelapse deaths, cause [13]: Fungal infection
Nonrelapse deaths, number of patients [13]: 1 (14%)
Number of days with grade 4 mucositis, median (range) [13]: 6 (4-11) days
Peripheral nerve function, number of patients with grade 3 or 4 [13]: 1 (14%)
Pulmonary clinical status, number of patients with grade 3 or 4 [13]: 0
Reduction in ejection fraction, number of patients with grade 3 or 4 [13]: 0
Cortical function, number of patients with grade 3 or 4 [14]: 0
Enteritis, number of patients with grade 3 or 4 [14]: 3 (60%)
Hematuria, number of patients with grade 3 or 4 [14]: 1 (20%)
Mucositis (grade 4), number of patients [14]: 4 (80%)
Nonrelapse deaths, cause [14]: Septic shock
Nonrelapse deaths, number of patients [14]: 1 (20%)
Number of days with grade 4 mucositis, median (range) [14]: 8 (0-12) days
Peripheral nerve function, number of patients with grade 3 or 4 [14]: 0
Pulmonary clinical status, number of patients with grade 3 or 4 [14]: 0
Reduction in ejection fraction, number of patients with grade 3 or 4 [14]: 1 (20%)
